Results reported in ChEMBL document CHEMBL1201862, “PubChem BioAssay data set” (2004).
Activity calls are given as the source filed them.

Legend:
[1] = inhibitors of TNFa-stimulated NF-kB luciferase reporter, dose response, selectivity assay for EBV LMP1 NF-kB inhibitor project, HEK293 LMP1 reporter cells, dry powder, set 2 (AID 624369); assay type: functional
[2] = LMP1-driven NF-kB reporter inhibition, dose response, cell-based, luciferase reporter, luminescence, dry powder, set 2 (AID 624376); assay type: functional
[3] = HEK293 cell cytotoxicity, dose response, cytotoxicity control, ATP luminescence, dry powder, Set6 (AID 743142); assay type: functional, cell-based
[4] = MITF: Counter assay: A375 proliferation Measured in Cell-Based System Using Plate Reader - 2084-03_Inhibitor_Dose_DryPowder_Activity_Set8.; assay type: functional; details: A-375
[5] = MITF Orthogonal Assay: SK-MEL-5 CTG Assay Measured in Cell-Based System Using Plate Reader - 2084-02_Inhibitor_Dose_DryPowder_Activity_Set7.; assay type: functional
[6] = HEK293T cell cytotoxicity, dose response, cytotoxicity control, CellTiter-Glo luminescence, cherry-picked samples, set 4 (AID 743441); assay type: functional, cell-based; details: HEK293
Beta-lactamase [7] = target: Beta-lactamase (Salmonella choleraesuis (strain SC-B67), UniProt Q5J463); experiment: Epi-absorbance-based counterscreen for selective VIM-2 inhibitors: dose response biochemical high throughput screening assay to identify inhibitors of TEM-1 serine-beta-lactamase.
Beta-lactamase [8] = target: T1, Beta-lactamase (Pseudomonas aeruginosa, UniProt Q79MP6); experiment: […] counterscreen for selective VIM-2 inhibitors: dose response biochemical high throughput screening assay to identify inhibitors of IMP-1 metallo-beta-lactamase.
Beta-lactamase [9] = target: T1, Beta-lactamase; experiment: IMP-1 metallo-beta-lactamase inhibitors, dose response, selectivity assay for VIM-2 inhibitor project, biochemical, epi-absorbance (AID 1920)
Cryptococcus neoformans = experiment: PubChem AID 686997; assay type: functional, organism-based
Protein Wnt-3a = Protein Wnt-3a (Mus musculus, UniProt P27467); experiment: Wnt3a-driven reporter signaling inhibition, dose response, selectivity assay for Gli-SUFU antagonist project, Wnt-LIGHT cells, luminescence (AID 651570); assay type: functional; details: read-out: IC50_Mean;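 note: Wnt-LIGHT reporter cells stimulated with conditioned medium from Wnt3a-producing cells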
[10] = Shn3 3'UTR reporter inhibitors, dose response, cell-based, Clone20 osteoblasts, firefly luciferase, cherry-picked (AID 624132); assay type: functional;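 note: firefly luciferase luminescence from reporter carrying the Shn3 3'UTR in osteoblasts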
[11] = control 3'UTR Renilla luciferase suppression, dose response, counter-screen for Shn3 inhibitor project, cell-based, Clone20-Shn3RL, cherry-picked (AID 624133); assay type: functional
[12] = HepG2 cell cytotoxicity, dose response, cytotoxicity control for Shn3 inhibitor project, CellTiter-Glo, cherry-picked (AID 624134); assay type: functional, cell-based
[13] = inhibitors of control Renilla luciferase reporter, dose response, counter-screen for Shn3 3'UTR targeting project, Clone20-Shn3RL cells, dual-Glo, cherry-pick, set 2 (AID 720724); assay type: functional, cell-based; details: Dual-Go Shn3RL
[14] = reduction of Shn3 3'UTR firefly luciferase signal, dose response, Schnurri-3 inhibitor project, cell-based, Clone20 osteoblasts, cherry-pick, set 2 (AID 720490); assay type: functional;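 note: actives lower the luminescence signal as inhibitors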
[15] = target: DNA repair protein RAD52 homolog (Homo sapiens, UniProt P43351); assay type: functional, biochemical
Exodeoxyribonuclease V = target: T2, Exodeoxyribonuclease V (Escherichia coli (strain K12), UniProt P04993+P07648+P08394); experiment: E. coli RecBCD inhibitors, dose response, counter-screen for AddAB inhibitor project, absorbance, V66 E. coli, mutant T4 phage (AID 492957); assay type: functional, cell-based, Escherichia coli str. K-12 substr. MG1655
T2 sequence (P04993 whole entry): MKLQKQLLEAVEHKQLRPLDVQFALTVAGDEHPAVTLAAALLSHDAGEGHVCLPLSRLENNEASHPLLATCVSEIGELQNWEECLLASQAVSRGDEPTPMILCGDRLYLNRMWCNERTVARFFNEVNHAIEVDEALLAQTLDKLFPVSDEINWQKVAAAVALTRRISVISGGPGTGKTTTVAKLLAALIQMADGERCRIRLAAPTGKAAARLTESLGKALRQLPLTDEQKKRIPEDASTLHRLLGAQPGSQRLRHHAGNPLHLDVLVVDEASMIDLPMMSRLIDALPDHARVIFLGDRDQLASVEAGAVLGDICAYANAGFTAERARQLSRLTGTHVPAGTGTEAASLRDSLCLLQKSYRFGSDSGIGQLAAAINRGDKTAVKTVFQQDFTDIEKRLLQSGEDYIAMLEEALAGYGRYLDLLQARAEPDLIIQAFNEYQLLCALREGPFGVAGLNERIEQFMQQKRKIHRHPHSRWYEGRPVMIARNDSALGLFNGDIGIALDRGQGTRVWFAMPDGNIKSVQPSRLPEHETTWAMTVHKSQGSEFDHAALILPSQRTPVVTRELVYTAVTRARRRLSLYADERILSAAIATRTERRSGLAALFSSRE
T2 sequence (P07648 whole entry): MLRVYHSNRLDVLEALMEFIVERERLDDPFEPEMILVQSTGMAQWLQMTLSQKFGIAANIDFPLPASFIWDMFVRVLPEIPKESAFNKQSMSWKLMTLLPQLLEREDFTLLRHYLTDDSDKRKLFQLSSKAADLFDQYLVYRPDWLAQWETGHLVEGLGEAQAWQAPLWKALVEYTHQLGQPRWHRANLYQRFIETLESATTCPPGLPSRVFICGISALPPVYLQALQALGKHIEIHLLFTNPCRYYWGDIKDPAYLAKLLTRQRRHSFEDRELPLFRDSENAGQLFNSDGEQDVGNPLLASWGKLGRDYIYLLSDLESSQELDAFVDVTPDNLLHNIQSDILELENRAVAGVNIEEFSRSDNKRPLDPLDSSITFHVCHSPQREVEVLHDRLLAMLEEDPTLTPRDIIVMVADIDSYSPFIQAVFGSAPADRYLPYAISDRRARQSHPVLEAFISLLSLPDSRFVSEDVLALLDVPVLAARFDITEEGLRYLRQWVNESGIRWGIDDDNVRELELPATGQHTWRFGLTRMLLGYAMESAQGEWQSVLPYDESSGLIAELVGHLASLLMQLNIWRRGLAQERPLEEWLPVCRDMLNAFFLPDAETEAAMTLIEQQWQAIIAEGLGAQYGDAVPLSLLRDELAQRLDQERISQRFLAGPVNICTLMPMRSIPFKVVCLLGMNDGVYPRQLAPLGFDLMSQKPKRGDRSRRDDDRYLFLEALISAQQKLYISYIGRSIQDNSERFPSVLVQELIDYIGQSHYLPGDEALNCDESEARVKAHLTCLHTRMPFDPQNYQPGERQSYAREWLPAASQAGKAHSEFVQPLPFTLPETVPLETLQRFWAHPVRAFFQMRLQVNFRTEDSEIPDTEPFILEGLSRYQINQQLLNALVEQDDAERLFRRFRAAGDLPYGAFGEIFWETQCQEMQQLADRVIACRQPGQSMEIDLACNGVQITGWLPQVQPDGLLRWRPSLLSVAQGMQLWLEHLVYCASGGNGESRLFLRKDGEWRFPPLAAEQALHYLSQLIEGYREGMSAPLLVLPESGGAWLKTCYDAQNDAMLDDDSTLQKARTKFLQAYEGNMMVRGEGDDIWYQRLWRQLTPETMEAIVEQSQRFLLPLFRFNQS
T2 sequence (P08394 whole entry): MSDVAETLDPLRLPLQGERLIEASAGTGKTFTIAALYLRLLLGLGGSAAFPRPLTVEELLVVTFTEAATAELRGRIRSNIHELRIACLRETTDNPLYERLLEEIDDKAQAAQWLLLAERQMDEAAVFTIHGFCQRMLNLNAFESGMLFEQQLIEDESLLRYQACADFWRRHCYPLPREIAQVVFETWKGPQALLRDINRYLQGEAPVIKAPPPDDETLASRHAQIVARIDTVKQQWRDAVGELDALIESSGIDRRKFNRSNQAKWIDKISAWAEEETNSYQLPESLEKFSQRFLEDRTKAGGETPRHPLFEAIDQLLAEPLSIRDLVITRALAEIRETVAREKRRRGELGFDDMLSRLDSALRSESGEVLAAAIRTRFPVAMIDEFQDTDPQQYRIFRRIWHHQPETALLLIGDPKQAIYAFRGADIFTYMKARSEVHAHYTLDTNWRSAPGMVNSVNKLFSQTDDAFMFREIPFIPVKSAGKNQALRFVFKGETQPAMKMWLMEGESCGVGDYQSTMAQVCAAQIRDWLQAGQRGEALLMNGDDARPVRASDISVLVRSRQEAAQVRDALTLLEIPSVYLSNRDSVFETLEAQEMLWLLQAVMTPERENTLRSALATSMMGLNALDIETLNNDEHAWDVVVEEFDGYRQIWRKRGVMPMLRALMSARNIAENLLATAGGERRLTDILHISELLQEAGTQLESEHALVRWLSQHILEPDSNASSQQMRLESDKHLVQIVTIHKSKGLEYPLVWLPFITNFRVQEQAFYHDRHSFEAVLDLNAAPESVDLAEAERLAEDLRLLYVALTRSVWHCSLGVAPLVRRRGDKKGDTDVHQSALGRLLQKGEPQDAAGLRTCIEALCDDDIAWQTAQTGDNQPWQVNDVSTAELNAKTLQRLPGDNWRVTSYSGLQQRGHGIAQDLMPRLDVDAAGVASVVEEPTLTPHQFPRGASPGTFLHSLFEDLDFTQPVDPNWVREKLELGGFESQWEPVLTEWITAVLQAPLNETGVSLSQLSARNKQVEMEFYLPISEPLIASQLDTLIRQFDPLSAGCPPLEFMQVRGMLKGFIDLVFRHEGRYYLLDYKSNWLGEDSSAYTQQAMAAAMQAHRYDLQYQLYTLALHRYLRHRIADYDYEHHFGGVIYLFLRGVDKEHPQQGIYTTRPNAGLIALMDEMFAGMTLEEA

INS1 = experiment: beta cell apoptosis inhibitors, cytokine rescue, dose response, luminescence, retest (AID 449756); assay type: functional, cell-based; details: Rattus norvegicus;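 note: cell death triggered by IL-1 beta plus TNF-alpha plus IFN-gamma mixture; protective hits raise ATP signal compared with cytokine alone wells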
[16] = inhibitors of SNCA 5'UTR-driven reporter translation, confirmation, H4 neuroglioma cells, luminescence (AID 1988); assay type: functional, cell-based
[17] = Luminescence Cell-Based Dose Retest to Confirm Inhibitors of Cancer Stem Cells. [Related pubchem assays (depositor defined):AID2717, AID2721]; assay type: functional; details: Homo sapiens
[18] = NIH-3T3 fibroblast cytotoxicity, dose response, cytotoxicity control, cell-based, fluorescence, Alamar Blue, secondary assay (AID 2327); assay type: functional;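 note: NIH-3T3 mouse fibroblasts cultured with fluconazole at 8 µg/mL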
[19] = human group III sPLA2 inhibitors, dose response, biochemical, QFRET, IC50 (AID 743457);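 note: green fluorescence rise as the enzyme cleaves BODIPY PC-A2 in liposomes; potency for inhibition of the enzyme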
[20] = inhibitors of firefly luciferase expression or activity, dose response, H4 neuroglioma cells, luminescence (AID 1990); assay type: functional, cell-based
[21] = C. albicans growth with fluconazole, confirmation, fluorescence, retest (AID 2467); assay type: functional, cell-based
[22] = Counterscreen for AddAB inhibitors: absorbance-based bacterial cell-based high throughput dose response assay for inhibitors of bacterial viability. [Related pubchem assays (depositor defined):AID435030, AID449728, AID449731, AID488942, AID488955, AID488956]; assay type: functional
[23] = Luminescence Cell-Based Dose Response HTS to Identify Inhibitors of 5'UTR Stem-Loop Driven Prion Protein mRNA Translation in H4 Neuroglioblastoma Cells. [Related pubchem assays: 1827 (Project Summary), 1813 (Primary HTS)]; assay type: functional
[24] = target: Matrix metalloproteinase-14 (Homo sapiens, UniProt P50281); experiment: Dose Response confirmation of uHTS hits for a small molecule inhibitors of MT1-MMP activation in a fluorescence assay set 1.; assay type: functional
Nonstructural protein 1 = Nonstructural protein 1 (Influenza A virus, UniProt Q194T2); assay type: functional, Influenza A virus (A/California/07/2009(H1N1))
Chain of Nonstructural protein 1 (Q194T2 whole entry): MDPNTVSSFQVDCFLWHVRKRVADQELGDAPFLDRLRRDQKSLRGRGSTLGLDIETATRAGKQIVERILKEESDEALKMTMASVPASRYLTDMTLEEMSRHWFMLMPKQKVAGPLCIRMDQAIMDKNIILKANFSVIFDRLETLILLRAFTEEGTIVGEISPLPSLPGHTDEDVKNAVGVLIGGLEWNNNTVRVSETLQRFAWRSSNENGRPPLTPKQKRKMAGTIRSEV

T1 sequence (Q79MP6 whole entry): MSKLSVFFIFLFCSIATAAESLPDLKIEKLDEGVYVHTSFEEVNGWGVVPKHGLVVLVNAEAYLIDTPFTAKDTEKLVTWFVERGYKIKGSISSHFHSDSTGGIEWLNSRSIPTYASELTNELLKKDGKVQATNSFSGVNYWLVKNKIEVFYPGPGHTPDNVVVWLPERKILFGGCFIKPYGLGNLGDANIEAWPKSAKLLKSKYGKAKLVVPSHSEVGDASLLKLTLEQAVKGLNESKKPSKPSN
Chain of DNA repair protein RAD52 homolog (P43351 whole entry): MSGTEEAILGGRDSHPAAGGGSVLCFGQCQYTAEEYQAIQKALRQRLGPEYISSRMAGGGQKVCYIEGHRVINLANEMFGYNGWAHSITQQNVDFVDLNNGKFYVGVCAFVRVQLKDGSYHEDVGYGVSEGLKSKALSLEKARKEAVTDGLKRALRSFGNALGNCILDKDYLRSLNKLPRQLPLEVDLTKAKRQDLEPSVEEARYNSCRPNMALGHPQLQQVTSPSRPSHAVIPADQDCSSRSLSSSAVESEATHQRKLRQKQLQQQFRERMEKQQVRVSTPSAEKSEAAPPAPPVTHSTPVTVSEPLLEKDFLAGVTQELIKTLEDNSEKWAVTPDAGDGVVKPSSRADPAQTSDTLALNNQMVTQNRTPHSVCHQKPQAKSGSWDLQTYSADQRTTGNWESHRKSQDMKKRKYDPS
Chain of Beta-lactamase (Salmonella choleraesuis (strain SC-B67), UniProt Q5J463) (Q5J463 whole entry): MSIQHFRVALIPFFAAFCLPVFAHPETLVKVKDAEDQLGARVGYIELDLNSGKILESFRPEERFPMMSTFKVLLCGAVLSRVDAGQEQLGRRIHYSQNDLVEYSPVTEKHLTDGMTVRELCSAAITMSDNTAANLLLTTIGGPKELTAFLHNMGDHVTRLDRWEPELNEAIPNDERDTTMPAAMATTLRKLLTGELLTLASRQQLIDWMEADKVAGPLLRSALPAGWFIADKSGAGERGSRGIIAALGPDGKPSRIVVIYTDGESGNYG
Chain of Protein Wnt-3a (P27467 whole entry): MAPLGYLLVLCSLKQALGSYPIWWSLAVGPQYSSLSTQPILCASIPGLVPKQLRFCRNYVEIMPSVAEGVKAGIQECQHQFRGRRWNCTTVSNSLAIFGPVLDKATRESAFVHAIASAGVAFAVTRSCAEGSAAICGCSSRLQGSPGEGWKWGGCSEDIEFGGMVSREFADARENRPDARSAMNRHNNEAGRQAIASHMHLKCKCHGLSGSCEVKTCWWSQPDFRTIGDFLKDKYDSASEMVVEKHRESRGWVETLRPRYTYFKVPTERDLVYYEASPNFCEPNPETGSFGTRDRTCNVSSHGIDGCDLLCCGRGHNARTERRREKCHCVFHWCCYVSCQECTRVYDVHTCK

SMILES: C/C=C/c1cccc(-c2nc(C(=O)Nc3nccs3)cc3c2[C@@H](CCO)N(C(=O)NC(C)C)C3)c1
- AbsAC35 [1]: 58.58 µM
- AbsAC35 [2]: 118.9 µM

SMILES: O=C(Cc1ccc(Cl)cc1)NCCC(=O)N[C@@H]1CCCc2ccccc21
- AC50 [3]: 5.41 µM (active)

SMILES: Cc1ccc(NC2=CC(=O)c3ccccc3C2=O)cc1C
- AC50 [4]: > 70 µM (inactive)
- AC50 [5]: 0.904 µM (active)

SMILES: Cc1cc(C)c(OCCNC(=O)c2ccccc2Sc2ccccc2C#N)c(C)c1
- AC50 [6]: > 52 µM (inactive)

SMILES: S=c1[nH]nc(-c2cccs2)n1Cc1ccccc1
- IC50 (Beta-lactamase [7]): > 59.6 µM (inactive)
- IC50 (Beta-lactamase [8]): > 59.6 µM (inactive)
- IC50 (Beta-lactamase [9]): > 59.6 µM (inactive)

SMILES: Cc1cc(Cl)ccc1N=C(S)NCc1ccc(F)cc1
- AC50 (Cryptococcus neoformans): > 70 µM (inactive)

SMILES: CC(Sc1nc2ccccc2c(=O)n1C)C(=O)N(C)C1CCCCC1 (centres undefined)
- IC50 (Protein Wnt-3a): 1.92 µM (active)
- AC50 [10]: 2.27 µM (active)
- AC50 [11]: 13.7 µM (active)
- AC50 [12]: 38.2 µM (active)
- AC50 [13]: 49.9 µM (active)
- AC50 [14]: 2.03 µM (active)

SMILES: Cc1cc(N2CCNC[C@@H]2C)ccc1N1CC[C@@H](O)C1
- AC50 [15]: 4.37 µM (active)

SMILES: Cc1onc(-c2c(Cl)cccc2Cl)c1C(=O)NN=C(N)COc1ccc(Cl)cc1
- IC50 (Exodeoxyribonuclease V): > 119 µM (inactive)
- AC50 (INS1): 3.71 µM (active)
- EC50 [16]: > 120 µM (not active)
- AC50 [17]: 3.07 µM (active)
- EC50 [18]: > 150 µM (inactive)
- IC50 [19]: > 122 µM (inactive)
- EC50 [20]: > 120 µM (not active)
- EC50 [21]: 3.09 µM (active)
- IC50 [22]: > 119 µM (inactive)
- EC50 [23]: 12 µM (active)

SMILES: CCCN1C(=O)/C(=C2/C=Cc3ccccc3N2CC)SC1=S
- IC50 [24]: 29.7 µM (inactive)
- IC50 (Nonstructural protein 1): 5.77 µM (active)
